Measured values as given in patent publication US20080103205A1, “Pesticidal compositions and methods of use” (priority 2006, published 2008).
“Also recorded” adds a separate entry of the source.

How the values were obtained:
[1] = system: a variety of nematode species, including Caenorhabditis elegans and Meloidogyne incognita; details: 100 ppm; cited from earlier work
[2] = system: H. megidis; details: concentrations up to 200 ug/ml; cited from earlier work
[3] = system: voltage-gated chloride channels; details: cited from earlier work
[4] = system: Heterorhabditis bacteriophora; experiment: Toxicity test, infective juveniles (J3) of Heterorhabditis bacteriophora; format: in vivo; details: 200 ppm, up to 168 hrs of exposure
Description: Toxicity tests were conducted using infective juveniles (J3) of H. bacteriophora collected from infested Galleria mellonella larvae. Test solution (280 ul) was placed in a well of a 96-well plate and 20 ul aqueous solution containing nematodes was added. The nematodes in 20 ul solution ranged from 15 to 21 (n=10). Plates were sealed with Parafilm™ and incubated at room temperature. Similar tests conducted with 0.2% DMSO alone served as controls. Stock solution prepared in DMSO was added to wells to achieve 200 ppm. Nematode mortality was checked at 24, 48, 72, 120, and 168 hr after incubation. Nematodes that were motionless for 30 seconds when observed under stereo microscope were considered dead and included in mortality counts. Each concentration was replicated five times.
This broad cross resistance supports a role for AT blockers in the action of these compounds.

## CC(C)c1c(O)cc(/C=C/c2ccccc2)cc1O [DST]
[1]
  24 hr lethality: 100%
[2]
  sensitivity to DST: completely insensitive

## Cl[C@H]1[C@H](Cl)[C@@H](Cl)[C@@H](Cl)[C@H](Cl)[C@H]1Cl [lindane]
[3]
  potency as inhibitor of [35S]TBPS binding, Torpedo membranes versus rat brain: about 4 fold

## CCOP(=S)(OCC)Oc1nc(Cl)c(Cl)cc1Cl [chlorpyrifos]
[4]
  toxicity (FIG. 4): fully susceptible; also recorded: quite active in killing
